Reference: PMC9228215, “Anion-Sensing Properties of Cyclopentaphenylalanine” (Molecules, 2022)
Where a SMILES comes first, the peptide text is derived from it.

Columns and labels:
[1] = Isothermal titration calorimetry (microcalorimetry) of L with chloride; format: binding; settings: acetonitrile, 25.0 °C, measurements repeated three times
Experimental: Microcalorimetric measurements were conducted with an isothermal titration calorimeter Microcal VP-ITC at 25.0 °C. Thermograms were processed using the Microcal OriginPro 7.0 program (OriginLab Corporation, Northampton, MA, USA).
In the calorimetric studies of chloride complexation by L, the enthalpy changes were recorded upon stepwise additions of salt solution into the solution of cyclopeptide ligand (V0 = 1.4 cm^3). The heats measured in the titration experiments were corrected for the heats of titrant dilution obtained by blank experiments. The dependence of successive enthalpy changes on the titrant volume was processed by non-linear least-squares fitting procedure using OriginPro 7.5 program (OriginLab Corporation, Northampton, MA, USA). Measurements were repeated three times.

[2] = Comparison of stability constants in methanol and acetonitrile, chloride; format: binding; settings: 25 °C
Experimental: (§1) Fluorimetric titrations were conducted on Varian Cary Eclipse Fluorimeter, UV-Vis spectra were recorded by Agilent Cary 5000 spectrophotometer, and CD spectra were recorded on JASCO J815 spectrophotometer. Fluorimeter and UV-Vis spectrophotometer were connected to thermostating device, whereas CD titrations were performed at room temperature. The excitation wavelength used in all fluorimetric titrations was 260 nm, spectra were recorded at 2 nm interval with 0.4 s integration time, 10 nm excitation, and emission slits were used. In titrations with iodide, the obtained spectra were corrected by the anion concentration dependent solvent emission spectra. […] CD spectra were recorded in the 200–300 nm wavelength range with a 0.2 nm data pitch and scanning speed of 200 nm/min; 2 scans were accumulated for each spectrum. […]
^1H NMR titrations were carried out at 25 °C by means of a Bruker Avance III HD 400 MHz with a solvent signal used as a standard. […] Spectra were recorded at 16 pulses. ^1H NMR spectra were processed and visualized by means of MestReNova 6.1 software (Mestrelab Research, Santiago de Compostela, Spain). Stability constants of the corresponding complexes were determined from the obtained ^1H NMR spectra by using multivariate analysis implemented in HypNMR 4.0 software (Protonic Software, Leeds, UK) included in the Hyperquad program package. […]

[3] = Solubility determination of L (saturated solutions, spectrophotometric); format: physicochemical
Experimental: Saturated solutions of L in acetonitrile and methanol were prepared by adding an excess amount of the solid substance to the solvent. The obtained mixtures were left in a thermostat at 25 °C for several days in order to equilibrate. The concentrations of saturated solutions were determined at 25.0 °C spectrophotometrically by means of a Varian Cary 5000 spectrophotometer equipped with a thermostatting device. Calibration curves were obtained by measuring the absorbances of solutions of known concentrations.

[4] = Comparison of stability constants in methanol and acetonitrile, bromide; format: binding; settings: 25 °C
Experimental: as §1
^1H NMR titrations were carried out at 25 °C by means of a Bruker Avance III HD 400 MHz with a solvent signal used as a standard. […] Spectra were recorded at 16 pulses. ^1H NMR spectra were processed and visualized by means of MestReNova 6.1 software (Mestrelab Research, Santiago de Compostela, Spain). Stability constants of the corresponding complexes were determined from the obtained ^1H NMR spectra by using multivariate analysis implemented in HypNMR 4.0 software (Protonic Software, Leeds, UK) included in the Hyperquad program package.

[5] = cited from earlier work
Source text: The reaction enthalpy (−15 kJ mol^−1) and entropy (65 J mol^−1 K^−1) for L-Cl complex formation are close to the corresponding values for complexation of chloride with cyclopentaleucine (∆rH = −11 kJ mol^−1, ∆rS = 76 J mol^−1 K^−1). Therefore, the inclusion of fluorescent groups to the cyclopeptide sidechain improved the anion detection capability ...

Decrease in stability constant in methanol compared to acetonitrile, in the log K value [2]	Transfer Gibbs energy of L (MeCN→MeOH) ([3]; determined from ligand solubilities in acetonitrile and methanol, 25 °C)	Solubility of free L in acetonitrile ([3]; thermodynamic, excess solid in acetonitrile, equilibrated several days at 25 °C, saturated solution measured spectrophotometrically (UV) at 25.0 °C with calibration curve)	Solubility of free L in methanol ([3]; thermodynamic, excess solid in methanol, equilibrated several days at 25 °C, saturated solution measured spectrophotometrically (UV) at 25.0 °C with calibration curve)	Decrease in stability constant in methanol compared to acetonitrile, in the log K value [4]	Compound	Reaction enthalpy for L-Cl complex formation [1]	Reaction entropy for L-Cl complex formation [1]	∆rH for complexation of chloride with cyclopentaleucine [5]	∆rS for complexation of chloride with cyclopentaleucine [5]
about 4.5	negligible	(2.72 ± 0.02) × 10^−3 mol dm^−3	(2.81 ± 0.03) × 10^−3 mol dm^−3	~3.5	O=C1N[C@@H](Cc2ccccc2)C(=O)N[C@@H](Cc2ccccc2)C(=O)N[C@@H](Cc2ccccc2)C(=O)N[C@@H](Cc2ccccc2)C(=O)N[C@H]1Cc1ccccc1 [L, cyclopentaphenylalanine] (cyclo(FFFFF))	-3.59 kcal/mol	65 J mol^−1 K^−1	–	–
–	–	–	–	–	cyclopentaleucine	–	–	-2.63 kcal/mol	76 J mol^−1 K^−1
